In patent US20240131168A1, “NAPHTHALENE RING-CONTAINING COMPOUND, PHARMACEUTICAL COMPOSITION CONTAINING SAME, AND USE THEREOF” (JIANGSU YAHONG MEDITECH CO., LTD., priority 2021, published 2024):

System: MCF-7
Assay: CellTiter-Glo cell proliferation inhibition, MCF-7 (Effect Example 2)
Assay type: cell-based
Settings: Homo sapiens, MCF7, 144 h, MCF-7 (CTG), 6 days, starting concentration 10 μM; for inhibition at up to 10 µM: read-out: IH % max (maximum inhibition percentage)
In short: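 MCF-7, TamR-MCF-7, and CRISPR-edited MCF-7 ER D538G or Y537S cells were seeded at 1,000 or 2,000 cells/well in EMEM and cultured 24 h. They were then exposed to a 4-fold, 10-point series (top 10 µM before addition to wells) for 6 days or 72 h at 37 °C. CellTiter-Glo luminescence gave IC50 and maximum % inhibition.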

IC50 [nM]	Structure (SMILES)	inhibition at up to 10 µM [%]
	CCN(CCOc1ccc(Oc2c(-c3ccc(S(C)(=O)=O)cc3)ccc3cc(O)ccc23)cc1)CC(=O)N1CCN(c2ccc3c(c2)C(=O)N(C2CCC(=O)NC2=O)C3=O)CC1 (stereo not drawn) [Compound D8, 2-(2,6-dioxopiperidin-3-yl)-5-(4-(N-ethyl-N-(2-(4-((6-hydroxy-2-(4-(methylsulfonyl)phenyl)naphthalen-1-yl)oxy)phenoxy)ethyl)glycyl)piperazin-1-yl)isoindoline-1,3-dione]	56
238	C[C@@H]1CN(CCOc2ccc(Oc3c(-c4ccc(S(C)(=O)=O)cc4)ccc4cc(O)ccc34)cc2)[C@@H](C)CN1CCOCC(=O)N1CCN(c2ccc3c(c2)CN(C2CCC(=O)NC2=O)C3=O)CC1 (stereo partly drawn) [Compound D9, 3-(5-(4-(2-(2-((2R,5S)-4-(2-(4-((6-hydroxy-2-(4-(methylsulfonyl)phenyl)naphthalen-1-yl)oxy)phenoxy)ethyl)-2,5-dimethylpiperazin-1-yl)ethoxy)acetyl)piperazin-1-yl)-1-oxoisoindolin-2-yl)piperidine-2,6-dione]	60
	CS(=O)(=O)c1ccc(-c2ccc3cc(O)ccc3c2Oc2ccc(N3CCN(CCCCCOCC(=O)N4CCN(c5ccc6c(c5)CN(C5CCC(=O)NC5=O)C6=O)CC4)CC3)cc2)cc1 (stereo not drawn) [Compound D11, 3-(5-(4-(2-((5-(4-(4-((6-hydroxy-2-(4-(methylsulfonyl)phenyl)naphthalen-1-yl)oxy)phenyl)piperazin-1-yl)pentyl)oxy)acetyl)piperazin-1-yl)-1-oxoisoindolin-2-yl)piperidine-2,6-dione]	45
486	C[C@@H]1CN(CCOCC(=O)N2CCN(c3ccc4c(c3)C(=O)N(C3CCC(=O)NC3=O)C4=O)CC2)[C@@H](C)CN1CCOc1ccc(Oc2c(-c3ccc(S(C)(=O)=O)cc3)ccc3cc(O)ccc23)cc1 (stereo partly drawn) [Compound D15, 2-(2,6-dioxopiperidin-3-yl)-5-(4-(2-(2-((2S,5R)-4-(2-(4-((6-hydroxy-2-(4-(methylsulfonyl)phenyl)naphthalen-1-yl)oxy)phenoxy)ethyl)-2,5-dimethylpiperazin-1-yl)ethoxy)acetyl)piperazin-1-yl)isoindoline-1,3-dione]	51
	CS(=O)(=O)c1ccc(-c2ccc3cc(O)ccc3c2Oc2ccc(OCCOCCOCCOCCN3CCN(c4ccc5c(c4)C(=O)N(C4CCC(=O)NC4=O)C5=O)CC3)cc2)cc1 (stereo not drawn) [Compound D19]	44
	CS(=O)(=O)c1ccc(-c2ccc3cc(O)ccc3c2Oc2ccc(OCCOCCOCCOCCN3CCN(c4ccc5c(c4)C(=O)N(C4CCC(=O)NC4=O)C5)CC3)cc2)cc1 (stereo not drawn) [Compound D21]	44
	CS(=O)(=O)c1ccc(-c2ccc3cc(O)ccc3c2Oc2ccc(OCCOCCOCCN3CCN(c4ccc5c(c4)C(=O)N(C4CCC(=O)NC4=O)C5)CC3)cc2)cc1 (stereo not drawn) [Compound D22, 3-(6-(4-(2-(2-(2-(4-((6-hydroxy-2-(4-(methylsulfonyl)phenyl)naphthalen-1-yl)oxy)phenoxy)ethoxy)ethoxy)ethyl)piperazin-1-yl)-1-oxoisoindolin-2-yl)piperidine-2,6-dione]	38
216	CCN(CCOCCOCCN1CCN(c2ccc3c(c2)C(=O)N(C2CCC(=O)NC2=O)C3=O)CC1)CCOc1ccc(Oc2c(-c3ccc(S(C)(=O)=O)cc3)ccc3cc(O)ccc23)cc1 (stereo not drawn) [Compound D28, 2-(2,6-dioxopiperidin-3-yl)-5-(4-(2-(2-(2-(ethyl(2-(4-((6-hydroxy-2-(4-(methylsulfonyl)phenyl)naphthalen-1-yl)oxy)phenoxy)ethyl)amino)ethoxy)ethoxy)ethyl)piperazin-1-yl)isoindoline-1,3-dione]	53
541	CS(=O)(=O)c1ccc(-c2ccc3cc(O)ccc3c2Oc2ccc(OCCOCCOCCN3CCN(c4ccc5c(c4)CN(C4CCC(=O)NC4=O)C5=O)CC3)cc2)cc1 (stereo not drawn) [Compound D30]	55
	CCN(CCCCCN(C)CC(=O)N1CCN(c2ccc3c(c2)C(=O)N(C2CCC(=O)NC2=O)C3=O)CC1)CCOc1ccc(Oc2c(-c3ccc(S(C)(=O)=O)cc3)ccc3cc(O)ccc23)cc1 (stereo not drawn) [Compound D31, 2-(2,6-dioxopiperidin-3-yl)-5-(4-(N-(5-(ethyl(2-(4-((6-hydroxy-2-(4-(methylsulfonyl))phenyl)naphthalen-1-yl)oxy)phenoxy)ethyl)aminopentyl)-N-methylglycyl)piperazin-1-yl)isoindoline-1,3-dione]	32
69.8	CCN(CCOc1ccc(Oc2c(-c3ccc(S(C)(=O)=O)cc3)ccc3cc(O)ccc23)cc1)C(=O)c1ccc(CCC2CCN(C3CCN(c4ccc5c(c4)C(=O)N(C4CCC(=O)NC4=O)C5=O)CC3)CC2)cc1 (stereo not drawn) [Compound D34, 4-(2-(1′-(2-(2,6-dioxopiperidin-3-yl)-1,3-dioxoisoindolin-5-yl)-[1,4′-bipiperidin]-4-yl)ethyl)-N-ethyl-N-(2-(4-((6-hydroxy-2-(4-(methylsulfonyl)phenyl)naphthalen-1-yl)oxy)phenoxy)ethyl)benzamide]	52
	CS(=O)(=O)c1ccc(-c2ccc3cc(O)ccc3c2Oc2ccc(OCCOCCOCCOCCOc3ccc4c(c3)C(=O)N(C3CCC(=O)NC3=O)C4)cc2)cc1 (stereo not drawn) [Compound D35, 3-(6-(2-(2-(2-(2-(4-((6-hydroxy-2-(4-(methylsulfonyl)phenyl)naphthalen-1-yl)oxy)phenoxy)ethoxy)ethoxy)ethoxy)ethoxy)-1-oxoisoindolin-2-yl)piperidine-2,6-dione]	45
	CS(=O)(=O)c1ccc(-c2ccc3cc(O)ccc3c2Oc2ccc(OCCCCN3CCN(c4ccc5c(c4)CN(C4CCC(=O)NC4=O)C5=O)CC3)cc2)cc1 (stereo not drawn) [Compound D59, 3-(5-(4-(4-(4-((6-hydroxy-2-(4-(methylsulfonyl)phenyl)naphthalen-1-yl)oxy)phenoxy)butyl)piperazin-1-yl)-1-oxoisoindolin-2-yl)piperidine-2,6-dione]	37
